ChEMBL document CHEMBL1201862, “PubChem BioAssay data set” (2004)
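Method: 48-hour compound exposure of cells in 96-well plates, five concentrations, linear interpolation of endpoints. The concentration for 50% growth inhibition is given as GI50.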 Active and inactive are the calls of the source. Cut-off read from the data, not from the text of the source: active = GI50 up to about 1.1 µM and inactive = higher.

Key:
Test in all cases: growth of human tumour cells (NCI), 48 h
KM12 = test system: KM12
M14 = test system: M14
RXF 393 = test system: RXF 393
T47D = test system: T47D
CAKI-1 = test system: CAKI-1
Hs-578T = test system: Hs-578T
SK-MEL-28 = test system: SK-MEL-28
RPMI-8226 = test system: RPMI-8226
ACHN = test system: ACHN
HOP-92 = test system: HOP-92
UO-31 = test system: UO-31
MCF7 = test system: MCF7
NCI-H23 = test system: NCI-H23
MDA-MB-231 = test system: MDA-MB-231
TK-10 = test system: TK-10
A498 = test system: A498
NCI-H522 = test system: NCI-H522
SNB-19 = test system: SNB-19
SN12C = test system: SN12C
SNB-75 = test system: SNB-75

| Compound | GI50 (KM12) | GI50 (M14) | GI50 (RXF 393) | GI50 (T47D) | GI50 (CAKI-1) | GI50 (Hs-578T) | GI50 (SK-MEL-28) | GI50 (RPMI-8226) | GI50 (ACHN) | GI50 (HOP-92) | GI50 (UO-31) | GI50 (MCF7) | GI50 (NCI-H23) | GI50 (MDA-MB-231) | GI50 (TK-10) | GI50 (A498) | GI50 (NCI-H522) | GI50 (SNB-19) | GI50 (SN12C) | GI50 (SNB-75) |
| --- | --- | --- | --- | --- | --- | --- | --- | --- | --- | --- | --- | --- | --- | --- | --- | --- | --- | --- | --- | --- |
| CCCCCc1cc(CCCC)sc1-c1ccco1 | > 86.9 µM (inactive) | 97.5 µM (inactive) | 45.8 µM (inactive) | > 91.2 µM (inactive) | > 100 µM (inactive) | > 100 µM (inactive) | > 100 µM (inactive) | 55.3 µM (inactive) | > 100 µM (inactive) | > 100 µM (inactive) | > 100 µM (inactive) | 76.4 µM (inactive) | > 100 µM (inactive) | > 100 µM (inactive) | > 100 µM (inactive) | > 100 µM (inactive) | > 100 µM (inactive) | > 100 µM (inactive) | > 100 µM (inactive) | > 100 µM (inactive) |
| COCCN(CCNC(=O)c1cccc2c(N)c3cccc(C)c3nc12)CCOC | 0.83 µM (active) | 1.37 µM (inactive) | 1.93 µM (inactive) | 4.65 µM (inactive) | 0.528 µM (active) | 1.87 µM (inactive) | 7.35 µM (inactive) | 1.12 µM (active) | 0.681 µM (active) | 6.5 µM (inactive) | – | 0.136 µM (active) | 0.78 µM (active) | 0.24 µM (active) | 1.49 µM (inactive) | 2.78 µM (inactive) | 0.165 µM (active) | 2.48 µM (inactive) | 0.582 µM (active) | 1.17 µM (inactive) |
| Cn1c(=O)c2c(nc3n(C)c(=O)c4ccccc4n23)n(C)c1=O | 53.6 µM (inactive) | > 96.6 µM (inactive) | > 61.8 µM (inactive) | > 71 µM (inactive) | 24.3 µM (inactive) | 59.3 µM (inactive) | > 100 µM (inactive) | 20.7 µM (inactive) | 17.1 µM (inactive) | 43.6 µM (inactive) | 39.1 µM (inactive) | 17.9 µM (inactive) | 40.4 µM (inactive) | > 100 µM (inactive) | > 100 µM (inactive) | 18.9 µM (inactive) | 25.1 µM (inactive) | 25.8 µM (inactive) | 29.2 µM (inactive) | 40.1 µM (inactive) |
| Cc1cc(N(CC(C)Br)CC(C)Br)ccc1/N=N/c1ccccc1C(=O)O (stereo not drawn) | 13.4 µM (inactive) | 6.04 µM (inactive) | 0.881 µM (active) | 0.592 µM (active) | 2.49 µM (inactive) | 11.1 µM (inactive) | 1.93 µM (inactive) | 1.75 µM (inactive) | 2.79 µM (inactive) | 2.24 µM (inactive) | 5.86 µM (inactive) | 0.787 µM (active) | 3.81 µM (inactive) | 14.8 µM (inactive) | 11.7 µM (inactive) | 1.67 µM (inactive) | 3.03 µM (inactive) | 9.04 µM (inactive) | 4.72 µM (inactive) | 2.43 µM (inactive) |
| Clc1ccc(COC(Cn2ccnc2)c2ccc(Cl)cc2Cl)cc1 (stereo not drawn) [ECONAZOLE NITRATE] | 12.1 µM (inactive) | 13 µM (inactive) | 14.1 µM (inactive) | 5.42 µM (inactive) | 7.31 µM (inactive) | 17.1 µM (inactive) | 14.8 µM (inactive) | 4.22 µM (inactive) | 12.8 µM (inactive) | 11.8 µM (inactive) | 3.41 µM (inactive) | 8.26 µM (inactive) | 13.2 µM (inactive) | 12.4 µM (inactive) | 11.4 µM (inactive) | 11.6 µM (inactive) | 8.24 µM (inactive) | 14.9 µM (inactive) | 12.1 µM (inactive) | 15.6 µM (inactive) |
| O=C(NNC(=S)Nc1ccccc1)c1ccccc1Nc1ccccc1C(=O)NNC(=S)Nc1ccccc1 | 42 µM (inactive) | 19 µM (inactive) | 19.2 µM (inactive) | 27.7 µM (inactive) | 48.2 µM (inactive) | 13.1 µM (inactive) | 33 µM (inactive) | 18.6 µM (inactive) | 31.2 µM (inactive) | 8.53 µM (inactive) | 17.7 µM (inactive) | 23.8 µM (inactive) | 18.9 µM (inactive) | 21.7 µM (inactive) | 25.3 µM (inactive) | 42.8 µM (inactive) | 16.5 µM (inactive) | 17.7 µM (inactive) | 19.6 µM (inactive) | 22.4 µM (inactive) |
| CCC1(CC)N=C(C(F)(F)F)c2cc(C(=O)C(F)(F)F)c3ccccc3c2N1 | 3.99 µM (inactive) | 4.89 µM (inactive) | 3.15 µM (inactive) | 3.75 µM (inactive) | 3.99 µM (inactive) | 5.83 µM (inactive) | 8.26 µM (inactive) | 2.58 µM (inactive) | 4.3 µM (inactive) | 2.67 µM (inactive) | 3.3 µM (inactive) | 3.77 µM (inactive) | 3.24 µM (inactive) | 3.44 µM (inactive) | 8.63 µM (inactive) | 15.6 µM (inactive) | 3.94 µM (inactive) | 5.15 µM (inactive) | 3.41 µM (inactive) | 4.2 µM (inactive) |
| O=c1oc2c([N+](=O)[O-])cc([N+](=O)[O-])cc2c2ccccc12 | – | > 100 µM (inactive) | > 100 µM (inactive) | > 100 µM (inactive) | > 100 µM (inactive) | > 100 µM (inactive) | > 100 µM (inactive) | > 100 µM (inactive) | > 100 µM (inactive) | > 100 µM (inactive) | – | > 100 µM (inactive) | > 100 µM (inactive) | > 100 µM (inactive) | > 100 µM (inactive) | > 100 µM (inactive) | > 100 µM (inactive) | > 100 µM (inactive) | > 100 µM (inactive) | > 100 µM (inactive) |
| CCn1c2ccccc2c2nnc(NCCCO)nc21 | > 100 µM (inactive) | > 100 µM (inactive) | 57.9 µM (inactive) | 82 µM (inactive) | > 100 µM (inactive) | 50.2 µM (inactive) | > 100 µM (inactive) | > 100 µM (inactive) | > 100 µM (inactive) | > 100 µM (inactive) | – | > 100 µM (inactive) | > 100 µM (inactive) | > 100 µM (inactive) | > 100 µM (inactive) | > 100 µM (inactive) | > 100 µM (inactive) | > 100 µM (inactive) | > 100 µM (inactive) | 44.1 µM (inactive) |
| COC(=O)C(CCc1ccccc1I)C1=CCC2(CC1)OCCO2 (stereo not drawn) | 33.1 µM (inactive) | 28.2 µM (inactive) | 17.9 µM (inactive) | 15.8 µM (inactive) | 95.3 µM (inactive) | 37.6 µM (inactive) | 89.9 µM (inactive) | 62.2 µM (inactive) | 79.3 µM (inactive) | 30.4 µM (inactive) | 23.1 µM (inactive) | 32.7 µM (inactive) | 30.7 µM (inactive) | 65.5 µM (inactive) | 38.3 µM (inactive) | > 100 µM (inactive) | 18.7 µM (inactive) | 36.3 µM (inactive) | – | 34 µM (inactive) |
| CC(=O)NC1C(O)C(O)C(CO)OC1n1ncc(=O)[nH]c1=O (stereo not drawn) | > 100 µM (inactive) | > 100 µM (inactive) | > 100 µM (inactive) | > 100 µM (inactive) | > 100 µM (inactive) | > 100 µM (inactive) | > 100 µM (inactive) | > 100 µM (inactive) | > 100 µM (inactive) | > 100 µM (inactive) | > 100 µM (inactive) | > 100 µM (inactive) | > 100 µM (inactive) | > 100 µM (inactive) | > 100 µM (inactive) | > 100 µM (inactive) | > 100 µM (inactive) | > 100 µM (inactive) | > 100 µM (inactive) | > 100 µM (inactive) |
| O=C1C(SCCO)=C(SCCO)C(=O)c2ccccc21 | 1.75 µM (inactive) | 0.815 µM (active) | 1.33 µM (inactive) | 1.22 µM (inactive) | 2.08 µM (inactive) | 1.17 µM (inactive) | 1.67 µM (inactive) | 0.865 µM (active) | 0.807 µM (active) | 0.805 µM (active) | 1.08 µM (active) | 0.791 µM (active) | 0.518 µM (active) | 1.48 µM (inactive) | 1.62 µM (inactive) | 0.59 µM (active) | 1.86 µM (inactive) | 1.78 µM (inactive) | 1.6 µM (inactive) | 1.29 µM (inactive) |
| NC1CCC(N(CC(=O)O)CC(=O)O)C(N(CC(=O)O)CC(=O)O)C1 (stereo not drawn) | > 100 µM (inactive) | – | > 100 µM (inactive) | > 100 µM (inactive) | > 100 µM (inactive) | > 100 µM (inactive) | > 100 µM (inactive) | > 100 µM (inactive) | > 100 µM (inactive) | > 100 µM (inactive) | > 100 µM (inactive) | > 100 µM (inactive) | > 100 µM (inactive) | > 100 µM (inactive) | > 100 µM (inactive) | > 100 µM (inactive) | > 100 µM (inactive) | > 100 µM (inactive) | > 100 µM (inactive) | > 100 µM (inactive) |
| COc1cc(C2=N/C(=C/c3cccs3)C(=O)O2)cc(OC)c1OC | > 100 µM (inactive) | > 100 µM (inactive) | > 100 µM (inactive) | > 100 µM (inactive) | > 100 µM (inactive) | > 100 µM (inactive) | > 100 µM (inactive) | > 100 µM (inactive) | > 100 µM (inactive) | > 100 µM (inactive) | – | > 100 µM (inactive) | > 100 µM (inactive) | > 100 µM (inactive) | > 100 µM (inactive) | > 100 µM (inactive) | > 100 µM (inactive) | > 100 µM (inactive) | > 100 µM (inactive) | > 100 µM (inactive) |
